Test results taken from PubChem BioAssay (NCI).
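Results reflect a 48-hour exposure of cells in 96-well plates to compound at five concentrations. At the TGI there is no net growth.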

What was measured:
Experiment in all cases: growth of human tumour cells (NCI), 48 h
LOX IMVI melanoma = test system: LOX IMVI melanoma
U251 CNS = test system: U251 CNS
SN12C renal = test system: SN12C renal
MOLT-4 leukemia = test system: MOLT-4 leukemia
OVCAR-8 ovarian = test system: OVCAR-8 ovarian
HS 578T breast = test system: HS 578T breast
UACC-62 melanoma = test system: UACC-62 melanoma
OVCAR-3 ovarian = test system: OVCAR-3 ovarian
IGROV1 ovarian = test system: IGROV1 ovarian
MDA-N = test system: MDA-N
ACHN renal = test system: ACHN renal
K-562 leukemia = test system: K-562 leukemia
KM12 colon = test system: KM12 colon
SNB-19 CNS = test system: SNB-19 CNS
HCT-15 colon = test system: HCT-15 colon
COLO 205 colon = test system: COLO 205 colon
PC-3 prostate = test system: PC-3 prostate
HL-60(TB) leukemia = test system: HL-60(TB) leukemia
RXF 393 renal = test system: RXF 393 renal
TK-10 renal = test system: TK-10 renal
CAKI-1 renal = test system: CAKI-1 renal
EKVX NSCLC = test system: EKVX NSCLC
SF-268 CNS = test system: SF-268 CNS
CCRF-CEM leukemia = test system: CCRF-CEM leukemia
SK-MEL-5 melanoma = test system: SK-MEL-5 melanoma
SK-OV-3 ovarian = test system: SK-OV-3 ovarian
T-47D breast = test system: T-47D breast
A498 renal = test system: A498 renal
HOP-92 NSCLC = test system: HOP-92 NSCLC
HT29 colon = test system: HT29 colon
MDA-MB-435 = test system: MDA-MB-435
SF-539 CNS = test system: SF-539 CNS
NCI/ADR-RES ovarian = test system: NCI/ADR-RES ovarian
A549 NSCLC = test system: A549 NSCLC
UACC-257 melanoma = test system: UACC-257 melanoma
MDA-MB-231 breast = test system: MDA-MB-231 breast
UO-31 renal = test system: UO-31 renal
NCI-H23 lung = test system: NCI-H23 lung
HCT-116 colon = test system: HCT-116 colon
SK-MEL-28 melanoma = test system: SK-MEL-28 melanoma
OVCAR-5 ovarian = test system: OVCAR-5 ovarian
OVCAR-4 ovarian = test system: OVCAR-4 ovarian
NCI-H460 lung = test system: NCI-H460 lung
BT-549 breast = test system: BT-549 breast
MALME-3M melanoma = test system: MALME-3M melanoma
HCC-2998 colon = test system: HCC-2998 colon
SF-295 CNS = test system: SF-295 CNS
SK-MEL-2 melanoma = test system: SK-MEL-2 melanoma
DU-145 prostate = test system: DU-145 prostate
HOP-62 NSCLC = test system: HOP-62 NSCLC
MCF7 breast = test system: MCF7 breast
NCI-H522 lung = test system: NCI-H522 lung
RPMI-8226 leukemia = test system: RPMI-8226 leukemia
SW-620 colon = test system: SW-620 colon
M14 melanoma = test system: M14 melanoma

## COC(=O)C1=C(C(=O)OC)SC2(S1)C1=C(CCC1)SC(C(=O)OC)=C2C(=O)OC
LOX IMVI melanoma
  TGI: 15.3 µM
U251 CNS
  TGI: 29.2 µM
SN12C renal
  TGI: 23.4 µM
MOLT-4 leukemia
  TGI: 16.8 µM
OVCAR-8 ovarian
  TGI: 24.6 µM
HS 578T breast
  TGI: 35.4 µM
UACC-62 melanoma
  TGI: 34 µM
OVCAR-3 ovarian
  TGI: 24.6 µM
IGROV1 ovarian
  TGI: 26.6 µM
MDA-N
  TGI: 29.6 µM
ACHN renal
  TGI: 24.8 µM
K-562 leukemia
  TGI: > 100 µM
KM12 colon
  TGI: 32.1 µM
SNB-19 CNS
  TGI: 36.8 µM
HCT-15 colon
  TGI: 21.5 µM
COLO 205 colon
  TGI: 42 µM
PC-3 prostate
  TGI: 23.3 µM
HL-60(TB) leukemia
  TGI: > 100 µM
RXF 393 renal
  TGI: 16.7 µM
TK-10 renal
  TGI: 29.1 µM
CAKI-1 renal
  TGI: 18.1 µM
EKVX NSCLC
  TGI: 29 µM
SF-268 CNS
  TGI: 34.4 µM
CCRF-CEM leukemia
  TGI: 12.5 µM
SK-MEL-5 melanoma
  TGI: 36 µM
SK-OV-3 ovarian
  TGI: 30.5 µM
T-47D breast
  TGI: 46.3 µM
A498 renal
  TGI: 22.7 µM
HOP-92 NSCLC
  TGI: 22.5 µM
HT29 colon
  TGI: 18.5 µM
MDA-MB-435
  TGI: 26 µM
SF-539 CNS
  TGI: 4.32 µM
NCI/ADR-RES ovarian
  TGI: 39 µM
A549 NSCLC
  TGI: 32.8 µM
UACC-257 melanoma
  TGI: 31.8 µM
MDA-MB-231 breast
  TGI: 33.4 µM
UO-31 renal
  TGI: 22.7 µM
NCI-H23 lung
  TGI: 37 µM
HCT-116 colon
  TGI: 3.65 µM
SK-MEL-28 melanoma
  TGI: 25.3 µM
OVCAR-5 ovarian
  TGI: 34.6 µM
OVCAR-4 ovarian
  TGI: 28.9 µM
NCI-H460 lung
  TGI: 20.2 µM
BT-549 breast
  TGI: 31.3 µM
MALME-3M melanoma
  TGI: 36 µM
HCC-2998 colon
  TGI: 33 µM
SF-295 CNS
  TGI: 28.9 µM
SK-MEL-2 melanoma
  TGI: 35.8 µM
DU-145 prostate
  TGI: 15.8 µM
HOP-62 NSCLC
  TGI: 26.2 µM
MCF7 breast
  TGI: 22.4 µM
NCI-H522 lung
  TGI: 9.08 µM
RPMI-8226 leukemia
  TGI: > 100 µM
SW-620 colon
  TGI: 37.5 µM
M14 melanoma
  TGI: 35.3 µM
